Source: PubChem BioAssay (NCI)
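GI50 marks 50% less growth. TGI marks complete inhibition of growth.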

Assays:
Assay in all cases: NCI tumour cell line growth inhibition, 384-well format
LOX IMVI melanoma = tested on: LOX IMVI melanoma
MOLT-4 leukemia = tested on: MOLT-4 leukemia
BT-549 breast = tested on: BT-549 breast
ACHN renal = tested on: ACHN renal
SW-620 colon = tested on: SW-620 colon
UO-31 renal = tested on: UO-31 renal
SK-MEL-28 melanoma = tested on: SK-MEL-28 melanoma
NCI-H322M lung = tested on: NCI-H322M lung
A498 renal = tested on: A498 renal
A549 NSCLC = tested on: A549 NSCLC
UACC-257 melanoma = tested on: UACC-257 melanoma
SNB-75 CNS = tested on: SNB-75 CNS
HL-60(TB) leukemia = tested on: HL-60(TB) leukemia
SR leukemia = tested on: SR leukemia
SN12C renal = tested on: SN12C renal
786-0 renal = tested on: 786-0 renal
HOP-62 NSCLC = tested on: HOP-62 NSCLC
TK-10 renal = tested on: TK-10 renal
EKVX NSCLC = tested on: EKVX NSCLC
MDA-MB-435 melanoma = tested on: MDA-MB-435 melanoma
MDA-MB-468 breast = tested on: MDA-MB-468 breast
SF-295 CNS = tested on: SF-295 CNS
NCI-H23 lung = tested on: NCI-H23 lung
U251 glioblastoma = tested on: U251 glioblastoma
SK-OV-3 ovarian = tested on: SK-OV-3 ovarian
HCT-15 colon = tested on: HCT-15 colon
NCI-H522 lung = tested on: NCI-H522 lung
OVCAR-3 ovarian = tested on: OVCAR-3 ovarian
K-562 leukemia = tested on: K-562 leukemia
SF-268 CNS = tested on: SF-268 CNS
HCC-2998 colon = tested on: HCC-2998 colon
T-47D breast = tested on: T-47D breast
UACC-62 melanoma = tested on: UACC-62 melanoma
HS 578T breast = tested on: HS 578T breast
M14 melanoma = tested on: M14 melanoma
CAKI-1 renal = tested on: CAKI-1 renal
COLO 205 colon = tested on: COLO 205 colon
SK-MEL-5 melanoma = tested on: SK-MEL-5 melanoma
MCF7 breast = tested on: MCF7 breast
MDA-MB-231 breast = tested on: MDA-MB-231 breast
NCI-H226 lung = tested on: NCI-H226 lung
MALME-3M melanoma = tested on: MALME-3M melanoma
NCI/ADR-RES ovarian = tested on: NCI/ADR-RES ovarian
OVCAR-4 ovarian = tested on: OVCAR-4 ovarian
RPMI-8226 leukemia = tested on: RPMI-8226 leukemia
KM12 colon = tested on: KM12 colon
SNB-19 CNS = tested on: SNB-19 CNS
HOP-92 NSCLC = tested on: HOP-92 NSCLC
HCT-116 colon = tested on: HCT-116 colon
PC-3 prostate = tested on: PC-3 prostate
DU-145 prostate = tested on: DU-145 prostate
HT29 colon = tested on: HT29 colon
NCI-H460 NSCLC = tested on: NCI-H460 NSCLC
CCRF-CEM leukemia = tested on: CCRF-CEM leukemia
SF-539 CNS = tested on: SF-539 CNS
OVCAR-8 ovarian = tested on: OVCAR-8 ovarian
IGROV1 ovarian = tested on: IGROV1 ovarian
RXF 393 renal = tested on: RXF 393 renal

For `O=C(NOCCO)c1ccc2cncn2c1Nc1ccc(I)cc1F`, the GI50 (LOX IMVI melanoma) was < 0.01 µM, the TGI (LOX IMVI melanoma) was 0.259 µM and the GI50 (MOLT-4 leukemia) was 14.8 µM. For the same compound, the TGI (MOLT-4 leukemia) was 31.7 µM, the GI50 (BT-549 breast) was 10 µM and the TGI (BT-549 breast) was 25.4 µM. For the same compound, the GI50 (ACHN renal) was 7.88 µM, the TGI (ACHN renal) was > 100 µM and the GI50 (SW-620 colon) was < 0.01 µM. It also gave a TGI (SW-620 colon) of 12.5 µM, a GI50 (UO-31 renal) of 0.0408 µM and a TGI (UO-31 renal) of 20.2 µM. For the same compound, the GI50 (SK-MEL-28 melanoma) was < 0.01 µM, the TGI (SK-MEL-28 melanoma) was < 0.01 µM and the GI50 (NCI-H322M lung) was 0.0325 µM. For the same compound, the TGI (NCI-H322M lung) was 15.5 µM, the GI50 (A498 renal) was 11.9 µM and the TGI (A498 renal) was 32.4 µM. For the same compound, the GI50 (A549 NSCLC) was 0.026 µM, the TGI (A549 NSCLC) was 11.1 µM and the GI50 (UACC-257 melanoma) was < 0.01 µM. For the same compound, the TGI (UACC-257 melanoma) was < 0.01 µM, the GI50 (SNB-75 CNS) was 0.34 µM and the TGI (SNB-75 CNS) was 15.7 µM. The GI50 (HL-60(TB) leukemia) was < 0.01 µM, the TGI (HL-60(TB) leukemia) was < 0.01 µM and the GI50 (SR leukemia) was 0.087 µM. For the same compound, the TGI (SR leukemia) was 2.39 µM, the GI50 (SN12C renal) was < 0.01 µM and the TGI (SN12C renal) was 17.9 µM. The GI50 ([…]-0 renal) was 1.23 µM, the TGI (786-0 renal) was 20.7 µM and the GI50 (HOP-62 NSCLC) was 0.0128 µM. It also gave a TGI (HOP-62 NSCLC) of 15.3 µM, a GI50 (TK-10 renal) of 0.0704 µM and a TGI (TK-10 renal) of 27.4 µM. The GI50 (EKVX NSCLC) was 0.153 µM, the TGI (EKVX NSCLC) was 17.8 µM and the GI50 (MDA-MB-435 melanoma) was < 0.01 µM. It also gave a TGI (MDA-MB-435 melanoma) of 21.1 µM, a GI50 (MDA-MB-468 breast) of 6.92 µM and a TGI (MDA-MB-468 breast) of 21.5 µM. For the same compound, the GI50 (SF-295 CNS) was 11.1 µM, the TGI (SF-295 CNS) was 26.2 µM and the GI50 (NCI-H23 lung) was < 0.01 µM. The TGI (NCI-H23 lung) was 0.077 µM, the GI50 (U251 glioblastoma) was 0.0466 µM and the TGI (U251 glioblastoma) was 10.6 µM. It also gave a GI50 (SK-OV-3 ovarian) of 2.76 µM, a TGI (SK-OV-3 ovarian) of 18.7 µM and a GI50 (HCT-15 colon) of 0.301 µM. The TGI (HCT-15 colon) was > 100 µM, the GI50 (NCI-H522 lung) was 11.8 µM and the TGI (NCI-H522 lung) was 26.4 µM. The GI50 (OVCAR-3 ovarian) was 11.2 µM, the TGI (OVCAR-3 ovarian) was 29.1 µM and the GI50 (K-562 leukemia) was 0.0267 µM. For the same compound, the TGI (K-562 leukemia) was 14.7 µM, the GI50 (SF-268 CNS) was 9.41 µM and the TGI (SF-268 CNS) was 22.9 µM. The GI50 (HCC-2998 colon) was < 0.01 µM, the TGI (HCC-2998 colon) was 0.0101 µM and the GI50 (T-47D breast) was 15.2 µM. The TGI (T-47D breast) was 43.1 µM, the GI50 (UACC-62 melanoma) was < 0.01 µM and the TGI (UACC-62 melanoma) was 0.0159 µM. The GI50 (HS 578T breast) was 1.22 µM, the TGI (HS 578T breast) was 7.01 µM and the GI50 (M14 melanoma) was < 0.01 µM. The TGI (M14 melanoma) was < 0.01 µM, the GI50 (CAKI-1 renal) was 0.0109 µM and the TGI (CAKI-1 renal) was 13.3 µM. For the same compound, the GI50 (COLO 205 colon) was < 0.01 µM, the TGI (COLO 205 colon) was 0.0258 µM and the GI50 (SK-MEL-5 melanoma) was < 0.01 µM. For the same compound, the TGI (SK-MEL-5 melanoma) was 15.8 µM, the GI50 (MCF7 breast) was 11.5 µM and the TGI (MCF7 breast) was 47.2 µM. For the same compound, the GI50 (MDA-MB-231 breast) was < 0.01 µM, the TGI (MDA-MB-231 breast) was 1.02 µM and the GI50 (NCI-H226 lung) was 1.01 µM. The TGI (NCI-H226 lung) was 18.3 µM, the GI50 (MALME-3M melanoma) was < 0.01 µM and the TGI (MALME-3M melanoma) was < 0.01 µM. The GI50 (NCI/ADR-RES ovarian) was 23.1 µM, the TGI (NCI/ADR-RES ovarian) was > 100 µM and the GI50 (OVCAR-4 ovarian) was 4.22 µM. The TGI (OVCAR-4 ovarian) was 38.3 µM, the GI50 (RPMI-8226 leukemia) was 2.16 µM and the TGI (RPMI-8226 leukemia) was 20.9 µM. The GI50 (KM12 colon) was < 0.01 µM, the TGI (KM12 colon) was 17.9 µM and the GI50 (SNB-19 CNS) was 0.0878 µM. For the same compound, the TGI (SNB-19 CNS) was 20.6 µM, the GI50 (HOP-92 NSCLC) was 0.012 µM and the TGI (HOP-92 NSCLC) was 0.198 µM. The GI50 (HCT-116 colon) was < 0.01 µM, the TGI (HCT-116 colon) was 0.191 µM and the GI50 (PC-3 prostate) was 18.1 µM. For the same compound, the TGI (PC-3 prostate) was 35.4 µM, the GI50 (DU-145 prostate) was 2.14 µM and the TGI (DU-145 prostate) was 22.4 µM. The GI50 (HT29 colon) was < 0.01 µM, the TGI (HT29 colon) was 14.3 µM and the GI50 (NCI-H460 NSCLC) was < 0.01 µM. It also gave a TGI (NCI-H460 NSCLC) of 22.1 µM, a GI50 (CCRF-CEM leukemia) of 13.3 µM and a TGI (CCRF-CEM leukemia) of 27 µM. The GI50 (SF-539 CNS) was 0.288 µM, the TGI (SF-539 CNS) was 11.7 µM and the GI50 (OVCAR-8 ovarian) was 2.6 µM. The TGI (OVCAR-8 ovarian) was 18.2 µM, the GI50 (IGROV1 ovarian) was < 0.01 µM and the TGI (IGROV1 ovarian) was 12.6 µM. It also gave a GI50 (RXF 393 renal) of 0.196 µM and a TGI (RXF 393 renal) of 15.1 µM.
